Experimental data as given in US12077503B2, “Substituted cyclic amides and their use as herbicides” (FMC CORPORATION, priority 2015, dated 2024).
Read-outs that look alike come from different tables or passages of the source.

Tests used:
Assay type in all cases: in vivo
[1] = system: ryegrass, Italian (Italian ryegrass, Lolium multiflorum); experiment: Test A preemergence; details: Lolium multiflorum, pre-emergence, 240 h, read-out: Plant response rating, Ryegrass, Italian; for pest or weed control at 125 g/ha: 125 g ai/ha, preemergence, visual rating after approx. 10 d, 0 to 100 scale where 0 is no effect and 100 is complete control; for pest or weed control at 31 g/ha: Preemergence, 31 g ai/ha, 0 to 100 scale (0 no effect, 100 complete control)
In short: (§1)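 Seeded soil received test chemicals as a preemergence directed spray, and seedlings at one to two leaves, 2–10 cm tall, received them postemergence, in a non-phytotoxic, surfactant-containing solvent mixture. Pots were held in a greenhouse for approximately 10 d, then rated for injury from 0, no effect, to 100, complete control.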

[2] = system: Kochia (Kochia scoparia); experiment: Test A preemergence; details: Bassia scoparia, pre-emergence, 240 h, read-out: Plant response rating, Kochia; for pest or weed control at 125 g/ha: 125 g ai/ha, preemergence, visual rating after approx. 10 d, 0 to 100 scale where 0 is no effect and 100 is complete control; for pest or weed control at 31 g/ha: Preemergence, 31 g ai/ha, 0 to 100 scale (0 no effect, 100 complete control)
In short: as §1

[3] = system: barnyardgrass (Echinochloa crus-galli); experiment: Test A preemergence; details: Echinochloa crus-galli, pre-emergence, 240 h, read-out: Plant response rating, Barnyardgrass; for pest or weed control at 125 g/ha: 125 g ai/ha, preemergence, visual rating after approx. 10 d, 0 to 100 scale where 0 is no effect and 100 is complete control; for pest or weed control at 31 g/ha: Preemergence, 31 g ai/ha, 0 to 100 scale (0 no effect, 100 complete control)
In short: as §1

[4] = system: ragweed (common ragweed, Ambrosia elatior); experiment: Test A preemergence; details: Ambrosia artemisiifolia, pre-emergence, 240 h, read-out: Plant response rating, Ragweed; for pest or weed control at 125 g/ha: 125 g ai/ha, preemergence, visual rating after approx. 10 d, 0 to 100 scale where 0 is no effect and 100 is complete control; for pest or weed control at 31 g/ha: Preemergence, 31 g ai/ha, 0 to 100 scale (0 no effect, 100 complete control)
In short: as §1

[5] = system: pigweed (Amaranthus retroflexus); experiment: Test A preemergence; details: Amaranthus retroflexus, pre-emergence, 240 h, read-out: Plant response rating, Pigweed; for pest or weed control at 125 g/ha: 125 g ai/ha, preemergence, visual rating after approx. 10 d, 0 to 100 scale where 0 is no effect and 100 is complete control; for pest or weed control at 31 g/ha: Preemergence, 31 g ai/ha, 0 to 100 scale (0 no effect, 100 complete control)
[6] = system: giant foxtail (Setaria faberii); experiment: Test A preemergence; details: Setaria faberi, pre-emergence, 240 h, read-out: Plant response rating, Foxtail, Giant; for pest or weed control at 125 g/ha: 125 g ai/ha, preemergence, visual rating after approx. 10 d, 0 to 100 scale where 0 is no effect and 100 is complete control; for pest or weed control at 31 g/ha: Preemergence, 31 g ai/ha, 0 to 100 scale (0 no effect, 100 complete control)
In short: as §1

[7] = system: barnyardgrass (Echinochloa crus-galli); experiment: Test B flooded paddy test; details: Echinochloa crus-galli, Flood, 250 g ai/ha; scale of 0 to 100 where 0 is no effect and 100 is complete control; read-out: Barnyardgrass plant response rating
In short: (§2)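 Evaluation by eye, against controls, occurred 13–15 d post-treatment in a greenhouse, using a 0 (no effect) to 100 (complete control) scale. Application was into the paddy water, 3 cm deep over the soil, on 2-leaf plants.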

[8] = system: ducksalad (Heteranthera limosa); experiment: Test B flooded paddy test; details: Heteranthera limosa, Flood, 250 g ai/ha; scale of 0 to 100 where 0 is no effect and 100 is complete control; read-out: Ducksalad plant response rating
In short: as §2

[9] = system: rice (Oryra sativa); experiment: Test B flooded paddy test; details: Oryza sativa, Flood, 250 g ai/ha; scale of 0 to 100 where 0 is no effect and 100 is complete control; read-out: Rice plant response rating
In short: as §2

[10] = system: sedge, umbrella (small-flower umbrella sedge, Cyperus difformis); experiment: Test B flooded paddy test; details: Cyperus difformis, Flood, 250 g ai/ha; scale of 0 to 100 where 0 is no effect and 100 is complete control; read-out: Sedge, Umbrella plant response rating
In short: as §2

[11] = system: blackgrass (Alopecurus myosuroides); experiment: Test A postemergence; details: Alopecurus myosuroides, post-emergence, 240 h; for pest or weed control at 125 g/ha: 125 g ai/ha, postemergence; for pest or weed control at 31 g/ha: Postemergence, 31 g ai/ha, visual injury after approx. 10 d, 0 to 100 scale, 0 no effect, 100 complete control
In short: as §1

[12] = system: ryegrass, Italian (Italian ryegrass, Lolium multiflorum); experiment: Test A postemergence; details: Lolium multiflorum, post-emergence, 240 h; for pest or weed control at 125 g/ha: 125 g ai/ha, postemergence; for pest or weed control at 31 g/ha: Postemergence, 31 g ai/ha, visual injury after approx. 10 d, 0 to 100 scale, 0 no effect, 100 complete control
In short: as §1

[13] = system: Kochia (Kochia scoparia); experiment: Test A postemergence; details: Bassia scoparia, post-emergence, 240 h; for pest or weed control at 125 g/ha: 125 g ai/ha, postemergence; for pest or weed control at 31 g/ha: Postemergence, 31 g ai/ha, visual injury after approx. 10 d, 0 to 100 scale, 0 no effect, 100 complete control
In short: as §1

[14] = system: wheat (Triticum aestivum); experiment: Test A postemergence; details: Triticum aestivum, post-emergence, 240 h; for plant injury at 31 g/ha: Postemergence, 31 g ai/ha, visual injury after approx. 10 d, 0 to 100 scale, 0 no effect, 100 complete control, read-out: Plant response rating, Wheat; for plant injury at 125 g/ha: 125 g ai/ha, postemergence, visual injury rating after approximately 10 d, read-out: Wheat plant response rating (0 to 100 scale, 0 no effect, 100 complete control)
In short: as §1

[15] = system: ragweed (common ragweed, Ambrosia elatior); experiment: Test A postemergence; details: Ambrosia artemisiifolia, post-emergence, 240 h; for pest or weed control at 125 g/ha: 125 g ai/ha, postemergence; for pest or weed control at 31 g/ha: Postemergence, 31 g ai/ha, visual injury after approx. 10 d, 0 to 100 scale, 0 no effect, 100 complete control
In short: as §1

[16] = visual injury after approximately 10 d, 0 to 100 scale (0 no effect, 100 complete control), read-out: Plant response rating, Blackgrass
[17] = read-out: Plant response rating, Blackgrass
[18] = visual injury after approximately 10 d, 0 to 100 scale (0 no effect, 100 complete control), read-out: Plant response rating, Ryegrass, Italian
[19] = read-out: Plant response rating, Ryegrass, Italian
[20] = visual injury after approximately 10 d, 0 to 100 scale (0 no effect, 100 complete control), read-out: Plant response rating, Kochia
[21] = read-out: Plant response rating, Kochia
[22] = visual injury after approximately 10 d, 0 to 100 scale (0 no effect, 100 complete control), read-out: Plant response rating, Ragweed
[23] = read-out: Plant response rating, Ragweed
[24] = visual injury rating after approximately 10 d, read-out: Blackgrass plant response rating (0 to 100 scale, 0 no effect, 100 complete control)
[25] = visual injury rating after approximately 10 d, read-out: Ryegrass, Italian plant response rating (0 to 100 scale, 0 no effect, 100 complete control)
[26] = visual injury rating after approximately 10 d, read-out: Kochia plant response rating (0 to 100 scale, 0 no effect, 100 complete control)
[27] = visual injury rating after approximately 10 d, read-out: Ragweed plant response rating (0 to 100 scale, 0 no effect, 100 complete control)

C/C=C/C1CNC(=O)C1C(=O)Nc1ccccc1F (stereo not drawn) [Compound 792]
pest or weed control at 125 g/ha [1]: 0%
pest or weed control at 31 g/ha [1]: 0%
pest or weed control at 125 g/ha [2]: 0%
pest or weed control at 31 g/ha [2]: 0%
pest or weed control at 125 g/ha [3]: 0%
pest or weed control at 31 g/ha [3]: 0%
pest or weed control at 125 g/ha [4]: 0%
pest or weed control at 31 g/ha [4]: 0%
pest or weed control at 125 g/ha [5]: 0%
pest or weed control at 31 g/ha [5]: 0%
pest or weed control at 125 g/ha [6]: 0%
pest or weed control at 31 g/ha [6]: 0%
pest or weed control at 250 g/ha [7]: 0%
pest or weed control at 250 g/ha [8]: 0%
pest or weed control at 250 g/ha [9]: 0%
pest or weed control at 250 g/ha [10]: 0%
pest or weed control at 125 g/ha [11, 16]: 0%
pest or weed control at 31 g/ha [11, 17]: 0%
pest or weed control at 125 g/ha [12, 18]: 0%
pest or weed control at 31 g/ha [12, 19]: 0%
pest or weed control at 125 g/ha [13, 20]: 0%
pest or weed control at 31 g/ha [13, 21]: 0%
plant injury at 31 g/ha [14]: 0%
pest or weed control at 125 g/ha [15, 22]: 0%
pest or weed control at 31 g/ha [15, 23]: 0%

O=C1NCC[C@H](c2ccc(Cl)cc2)[C@H]1C(=O)Nc1cccc(F)c1F [Compound 795]
pest or weed control at 125 g/ha [1]: 0%
pest or weed control at 31 g/ha [1]: 0%
pest or weed control at 125 g/ha [2]: 0%
pest or weed control at 31 g/ha [2]: 0%
pest or weed control at 125 g/ha [3]: 80%
pest or weed control at 31 g/ha [3]: 30%
pest or weed control at 125 g/ha [4]: 0%
pest or weed control at 31 g/ha [4]: 0%
pest or weed control at 125 g/ha [5]: 0%
pest or weed control at 31 g/ha [5]: 0%
pest or weed control at 125 g/ha [6]: 70%
pest or weed control at 31 g/ha [6]: 0%
pest or weed control at 250 g/ha [7]: 0%
pest or weed control at 250 g/ha [8]: 70%
pest or weed control at 250 g/ha [9]: 0%
pest or weed control at 250 g/ha [10]: 0%
pest or weed control at 125 g/ha [11, 16]: 0%
pest or weed control at 31 g/ha [11, 17]: 0%
pest or weed control at 125 g/ha [12, 18]: 0%
pest or weed control at 31 g/ha [12, 19]: 0%
pest or weed control at 125 g/ha [13, 20]: 0%
pest or weed control at 31 g/ha [13, 21]: 0%
plant injury at 31 g/ha [14]: 0%
pest or weed control at 125 g/ha [15, 22]: 0%
pest or weed control at 31 g/ha [15, 23]: 0%

O=C(Nc1cccc(F)c1F)[C@H]1C(=O)N(O)CC[C@@H]1c1ccc(F)cc1 [Compound 805]
pest or weed control at 125 g/ha [1]: 0%
pest or weed control at 31 g/ha [1]: 0%
pest or weed control at 125 g/ha [2]: 0%
pest or weed control at 31 g/ha [2]: 0%
pest or weed control at 125 g/ha [3]: 0%
pest or weed control at 31 g/ha [3]: 0%
pest or weed control at 125 g/ha [4]: 0%
pest or weed control at 31 g/ha [4]: 0%
pest or weed control at 125 g/ha [5]: 0%
pest or weed control at 31 g/ha [5]: 0%
pest or weed control at 125 g/ha [6]: 0%
pest or weed control at 31 g/ha [6]: 0%
pest or weed control at 250 g/ha [7]: 0%
pest or weed control at 250 g/ha [8]: 0%
pest or weed control at 250 g/ha [9]: 0%
pest or weed control at 250 g/ha [10]: 0%
pest or weed control at 125 g/ha [11, 24]: 0%
pest or weed control at 31 g/ha [11, 17]: 0%
pest or weed control at 125 g/ha [12, 25]: 0%
pest or weed control at 31 g/ha [12, 19]: 0%
pest or weed control at 125 g/ha [13, 26]: 0%
pest or weed control at 31 g/ha [13, 21]: 0%
plant injury at 125 g/ha [14]: 0%
plant injury at 31 g/ha [14]: 0%
pest or weed control at 125 g/ha [15, 27]: 0%
pest or weed control at 31 g/ha [15, 23]: 0%

CSc1ccccc1NC(=O)[C@H]1C(=O)N(C)CC[C@@H]1c1ccc2c(c1)OC(F)(F)O2 [Compound 814]
pest or weed control at 125 g/ha [1]: 0%
pest or weed control at 31 g/ha [1]: 0%
pest or weed control at 125 g/ha [2]: 0%
pest or weed control at 31 g/ha [2]: 0%
pest or weed control at 125 g/ha [3]: 0%
pest or weed control at 31 g/ha [3]: 0%
pest or weed control at 125 g/ha [4]: 0%
pest or weed control at 31 g/ha [4]: 0%
pest or weed control at 125 g/ha [5]: 0%
pest or weed control at 31 g/ha [5]: 0%
pest or weed control at 125 g/ha [6]: 0%
pest or weed control at 31 g/ha [6]: 0%
pest or weed control at 250 g/ha [7]: 0%
pest or weed control at 250 g/ha [8]: 50%
pest or weed control at 250 g/ha [9]: 0%
pest or weed control at 250 g/ha [10]: 60%
pest or weed control at 125 g/ha [11, 24]: 0%
pest or weed control at 31 g/ha [11, 17]: 0%
pest or weed control at 125 g/ha [12, 25]: 0%
pest or weed control at 31 g/ha [12, 19]: 0%
pest or weed control at 125 g/ha [13, 26]: 0%
pest or weed control at 31 g/ha [13, 21]: 0%
plant injury at 125 g/ha [14]: 0%
plant injury at 31 g/ha [14]: 0%
pest or weed control at 125 g/ha [15, 27]: 0%
pest or weed control at 31 g/ha [15, 23]: 0%
